{
  "source": "ChEMBL document CHEMBL1201862",
  "about": "“PubChem BioAssay data set” (2004)",
  "key": {"[1]": {"biological_target": "T1, Cytochrome P450 1A2 (Homo sapiens, UniProt P05177)", "T1 sequence (P05177 whole entry)": "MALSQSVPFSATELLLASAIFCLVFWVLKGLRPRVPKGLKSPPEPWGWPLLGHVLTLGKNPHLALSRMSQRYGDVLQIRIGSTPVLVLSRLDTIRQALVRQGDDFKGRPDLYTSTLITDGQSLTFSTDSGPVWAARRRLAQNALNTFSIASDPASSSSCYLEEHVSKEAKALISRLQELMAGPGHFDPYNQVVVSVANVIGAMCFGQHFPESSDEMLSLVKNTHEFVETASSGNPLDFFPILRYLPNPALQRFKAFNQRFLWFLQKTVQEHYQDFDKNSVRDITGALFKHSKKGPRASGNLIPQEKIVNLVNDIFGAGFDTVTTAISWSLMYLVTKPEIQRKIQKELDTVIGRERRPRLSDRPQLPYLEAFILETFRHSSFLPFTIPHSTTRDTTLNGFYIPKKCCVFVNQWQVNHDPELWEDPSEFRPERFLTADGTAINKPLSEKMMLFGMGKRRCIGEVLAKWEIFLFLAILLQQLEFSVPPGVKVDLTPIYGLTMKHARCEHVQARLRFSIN"}, "[2]": {"biological_target": "Cytochrome P450 2C19 (Homo sapiens, UniProt P33261)", "sequence (P33261 whole entry)": "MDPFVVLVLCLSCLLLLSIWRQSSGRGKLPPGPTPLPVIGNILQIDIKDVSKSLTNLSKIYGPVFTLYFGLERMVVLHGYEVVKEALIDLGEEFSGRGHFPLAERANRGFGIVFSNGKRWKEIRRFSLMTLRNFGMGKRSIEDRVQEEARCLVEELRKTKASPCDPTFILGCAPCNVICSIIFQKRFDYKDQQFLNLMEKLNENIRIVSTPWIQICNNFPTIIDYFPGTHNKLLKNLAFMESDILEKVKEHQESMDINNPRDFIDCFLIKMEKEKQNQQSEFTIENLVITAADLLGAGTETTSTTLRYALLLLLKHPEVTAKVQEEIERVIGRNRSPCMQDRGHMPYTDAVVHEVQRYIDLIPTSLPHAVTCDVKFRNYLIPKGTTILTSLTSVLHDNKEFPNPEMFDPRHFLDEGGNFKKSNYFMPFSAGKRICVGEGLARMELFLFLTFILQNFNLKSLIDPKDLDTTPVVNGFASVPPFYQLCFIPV", "assay": "Cytochrome panel assay with activity outcomes. Panel member name: p450-cyp2c19 Compounds with AC50 equal or less than 10 uM are considered active", "assay_type": "functional"}, "[3]": {"biological_target": "Cytochrome P450 2C9 (Homo sapiens, UniProt P11712)", "sequence (P11712 whole entry)": "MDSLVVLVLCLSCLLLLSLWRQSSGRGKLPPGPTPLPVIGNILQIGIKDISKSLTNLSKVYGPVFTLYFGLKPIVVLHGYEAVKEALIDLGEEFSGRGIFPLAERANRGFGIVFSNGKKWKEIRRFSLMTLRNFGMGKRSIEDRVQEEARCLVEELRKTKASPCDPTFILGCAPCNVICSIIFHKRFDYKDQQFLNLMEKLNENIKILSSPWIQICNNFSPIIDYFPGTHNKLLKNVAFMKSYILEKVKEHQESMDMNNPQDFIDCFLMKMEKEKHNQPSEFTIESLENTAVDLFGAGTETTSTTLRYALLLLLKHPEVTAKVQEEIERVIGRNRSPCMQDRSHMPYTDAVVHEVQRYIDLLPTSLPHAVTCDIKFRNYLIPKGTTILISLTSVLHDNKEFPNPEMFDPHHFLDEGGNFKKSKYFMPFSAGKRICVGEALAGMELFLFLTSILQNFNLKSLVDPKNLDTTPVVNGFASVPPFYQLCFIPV"}, "[4]": {"biological_target": "Glucose-6-phosphate 1-dehydrogenase (Homo sapiens, UniProt P11413)", "sequence (P11413 whole entry)": "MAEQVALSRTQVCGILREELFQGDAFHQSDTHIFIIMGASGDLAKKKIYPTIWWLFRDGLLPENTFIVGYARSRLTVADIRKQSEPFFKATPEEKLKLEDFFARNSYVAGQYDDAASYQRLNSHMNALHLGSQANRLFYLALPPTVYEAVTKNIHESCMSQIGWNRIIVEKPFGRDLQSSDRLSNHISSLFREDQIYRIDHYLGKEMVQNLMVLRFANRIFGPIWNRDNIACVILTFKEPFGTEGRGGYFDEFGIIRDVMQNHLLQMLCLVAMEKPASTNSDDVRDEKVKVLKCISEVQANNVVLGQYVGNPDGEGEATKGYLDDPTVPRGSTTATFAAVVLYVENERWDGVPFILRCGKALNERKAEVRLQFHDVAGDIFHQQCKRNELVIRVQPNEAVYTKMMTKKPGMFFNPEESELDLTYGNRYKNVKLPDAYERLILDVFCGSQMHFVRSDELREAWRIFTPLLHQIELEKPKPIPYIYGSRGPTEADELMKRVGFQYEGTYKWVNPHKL", "assay": "inhibition of Homo sapiens G6PD, dose series – biochemical, fluorescence, selectivity assay for P. falciparum G6PD inhibitor project, dose response (AID 504792)", "assay_type": "functional"}, "[5]": {"biological_target": "T2, Bcl-2-related protein A1 (Mus musculus, UniProt Q07440)", "T2 sequence (Q07440 whole entry)": "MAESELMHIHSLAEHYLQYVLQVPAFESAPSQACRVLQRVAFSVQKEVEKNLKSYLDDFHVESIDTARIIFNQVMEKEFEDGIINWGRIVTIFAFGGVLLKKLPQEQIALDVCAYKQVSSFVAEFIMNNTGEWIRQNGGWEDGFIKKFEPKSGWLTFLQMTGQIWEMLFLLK", "assay_type": "functional"}, "[6]": {"biological_target": "T3, Ubiquitin-conjugating enzyme E2 N (Homo sapiens, UniProt P61088)", "T3 sequence (P61088 whole entry)": "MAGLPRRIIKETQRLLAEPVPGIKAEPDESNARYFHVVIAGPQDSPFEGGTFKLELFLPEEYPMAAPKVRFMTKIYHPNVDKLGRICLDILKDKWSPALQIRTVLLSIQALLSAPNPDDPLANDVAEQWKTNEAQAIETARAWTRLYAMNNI", "assay_type": "functional"}, "[7]": {"biological_target": "T3, Ubiquitin-conjugating enzyme E2 N", "assay_type": "functional", "remark": "listed apart in the source"}, "[8]": {"biological_target": "Genome polyprotein (dengue virus type 2, UniProt P29990)", "sequence (P29990 2492-3391 limits assumed)": "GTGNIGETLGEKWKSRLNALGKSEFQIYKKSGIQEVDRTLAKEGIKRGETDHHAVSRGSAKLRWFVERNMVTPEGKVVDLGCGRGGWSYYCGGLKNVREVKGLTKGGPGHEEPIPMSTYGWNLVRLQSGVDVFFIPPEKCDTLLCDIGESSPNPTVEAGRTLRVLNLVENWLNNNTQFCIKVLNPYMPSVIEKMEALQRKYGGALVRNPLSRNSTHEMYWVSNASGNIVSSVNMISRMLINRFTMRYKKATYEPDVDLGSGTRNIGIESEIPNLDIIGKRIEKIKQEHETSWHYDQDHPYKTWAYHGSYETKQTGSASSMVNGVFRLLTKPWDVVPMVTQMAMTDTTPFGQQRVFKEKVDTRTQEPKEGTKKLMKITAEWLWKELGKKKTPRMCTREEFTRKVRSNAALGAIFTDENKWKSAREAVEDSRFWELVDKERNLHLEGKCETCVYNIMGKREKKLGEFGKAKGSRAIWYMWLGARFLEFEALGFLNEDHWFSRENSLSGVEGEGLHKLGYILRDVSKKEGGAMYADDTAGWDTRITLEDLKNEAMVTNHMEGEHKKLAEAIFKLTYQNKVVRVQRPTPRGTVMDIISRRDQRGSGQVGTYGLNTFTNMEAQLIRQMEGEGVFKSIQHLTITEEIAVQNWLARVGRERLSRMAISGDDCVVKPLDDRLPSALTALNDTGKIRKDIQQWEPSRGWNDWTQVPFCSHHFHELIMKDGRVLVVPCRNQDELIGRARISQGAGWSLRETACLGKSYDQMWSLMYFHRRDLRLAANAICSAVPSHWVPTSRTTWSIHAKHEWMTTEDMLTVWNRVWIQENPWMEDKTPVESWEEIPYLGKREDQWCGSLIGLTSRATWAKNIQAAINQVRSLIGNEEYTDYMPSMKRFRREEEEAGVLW", "assay": "flavivirus cap methylation enzyme inhibition – biochemical, confirmation dose response, primary screen (AID 588689)", "assay_type": "functional"}, "[9]": {"assay": "reduction of Shn3 3'UTR-driven luciferase in osteoblasts – cell-based, Clone20 osteoblasts, firefly luciferase, cherry-picked, dose response (AID 624132)", "assay_type": "functional"}, "[10]": {"assay": "non-specific 3'UTR reporter inhibition in Clone20-Shn3RL – cell-based, Renilla luciferase, cherry-picked, counter-screen for Shn3 inhibitor project, dose response (AID 624133)", "assay_type": "functional"}, "[11]": {"assay": "loss of viability in HepG2 cells – cell-based, CellTiter-Glo, cherry-picked, cytotoxicity control for Shn3 inhibitor project, dose response (AID 624134)", "assay_type": "functional"}, "[12]": {"biological_target": "Nonstructural protein 1 (Influenza A virus, UniProt Q194T2)", "sequence (Q194T2 whole entry)": "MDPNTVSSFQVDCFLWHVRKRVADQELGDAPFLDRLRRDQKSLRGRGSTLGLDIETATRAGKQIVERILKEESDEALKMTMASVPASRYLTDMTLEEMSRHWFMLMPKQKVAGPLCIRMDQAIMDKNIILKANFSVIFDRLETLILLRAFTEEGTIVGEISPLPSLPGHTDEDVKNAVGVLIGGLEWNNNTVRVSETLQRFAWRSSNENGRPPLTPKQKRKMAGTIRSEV", "assay_type": "functional, Influenza A virus (A/California/07/2009(H1N1))"}, "[13]": {"assay": "HEK-293T cell viability reduction – luminescence, B-cell screen hits, cytotoxicity control for BCR NF-kB inhibitor project, dose response (AID 489021);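 also: cells exposed to compound for about 14 hours before viability readout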", "assay_type": "functional, cell-based"}, "[14]": {"biological_target": "SUMO-activating enzyme (Homo sapiens, UniProt Q9UBT2)", "sequence (Q9UBE0 whole entry)": "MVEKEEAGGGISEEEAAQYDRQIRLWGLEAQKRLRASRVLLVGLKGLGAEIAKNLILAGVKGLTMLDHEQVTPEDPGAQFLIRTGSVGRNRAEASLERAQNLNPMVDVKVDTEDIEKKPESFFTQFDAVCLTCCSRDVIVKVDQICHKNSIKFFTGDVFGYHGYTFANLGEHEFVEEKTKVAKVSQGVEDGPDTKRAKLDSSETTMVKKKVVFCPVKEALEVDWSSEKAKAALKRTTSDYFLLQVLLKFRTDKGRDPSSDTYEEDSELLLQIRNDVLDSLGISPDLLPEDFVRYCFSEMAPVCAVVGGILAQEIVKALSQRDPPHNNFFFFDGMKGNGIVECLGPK", "sequence (Q9UBT2 whole entry)": "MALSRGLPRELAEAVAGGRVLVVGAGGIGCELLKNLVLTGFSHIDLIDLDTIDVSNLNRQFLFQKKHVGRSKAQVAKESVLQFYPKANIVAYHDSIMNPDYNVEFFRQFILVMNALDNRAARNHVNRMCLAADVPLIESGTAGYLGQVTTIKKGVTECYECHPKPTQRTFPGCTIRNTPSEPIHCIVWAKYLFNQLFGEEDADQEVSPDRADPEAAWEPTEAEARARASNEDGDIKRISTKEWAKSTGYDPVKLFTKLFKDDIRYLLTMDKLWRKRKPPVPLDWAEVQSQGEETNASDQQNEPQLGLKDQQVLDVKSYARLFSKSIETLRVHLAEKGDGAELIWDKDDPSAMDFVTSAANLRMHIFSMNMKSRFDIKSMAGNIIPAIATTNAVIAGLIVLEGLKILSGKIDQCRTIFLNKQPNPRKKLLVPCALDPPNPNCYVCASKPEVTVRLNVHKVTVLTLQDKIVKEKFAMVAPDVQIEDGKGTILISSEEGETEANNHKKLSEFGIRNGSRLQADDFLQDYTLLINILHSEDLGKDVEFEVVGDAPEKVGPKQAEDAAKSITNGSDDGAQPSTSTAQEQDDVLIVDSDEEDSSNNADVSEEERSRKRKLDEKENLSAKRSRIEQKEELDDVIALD", "assay": "blockers of UBC9-mediated SUMO conjugation – biochemical, AlphaScreen, SUMOylation inhibitor project, confirmation (AID 2018)", "assay_type": "functional"}, "[15]": {"biological_target": "Cytochrome P450 2D6 (Homo sapiens, UniProt P10635)", "sequence (P10635 whole entry)": "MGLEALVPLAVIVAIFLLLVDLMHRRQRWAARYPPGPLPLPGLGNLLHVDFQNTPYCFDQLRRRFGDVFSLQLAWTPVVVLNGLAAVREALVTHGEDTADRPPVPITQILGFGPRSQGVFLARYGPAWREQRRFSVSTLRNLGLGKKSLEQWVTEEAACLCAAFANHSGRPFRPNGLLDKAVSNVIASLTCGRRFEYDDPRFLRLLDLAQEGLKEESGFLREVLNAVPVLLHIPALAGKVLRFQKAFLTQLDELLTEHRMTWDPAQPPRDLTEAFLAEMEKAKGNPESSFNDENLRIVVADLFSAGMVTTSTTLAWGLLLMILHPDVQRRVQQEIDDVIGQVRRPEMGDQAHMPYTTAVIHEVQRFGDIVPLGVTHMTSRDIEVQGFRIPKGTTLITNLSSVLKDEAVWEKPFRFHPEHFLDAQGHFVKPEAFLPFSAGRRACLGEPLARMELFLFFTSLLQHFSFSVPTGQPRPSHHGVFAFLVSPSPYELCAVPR"}},
  "note": "Active and inactive are the calls of the source.",
  "data": [
    {"smiles": "Cc1ccc(NN=C2C(=O)NC(=O)NC2=O)c([N+](=O)[O-])c1", "values": [
      {"measurement": "AC50", "setting": "[1]", "value": "17.8 µM (inconclusive)"},
      {"measurement": "AC50", "setting": "[2]", "value": "inconclusive"},
      {"measurement": "AC50", "setting": "[3]", "value": "inconclusive"}
    ]},
    {"smiles": "NNC(=O)CN1C(c2ccccc2Br)=Nc2ccc(Br)cc2C1c1ccccc1", "note": "(configuration not stated)", "values": [
      {"measurement": "IC50", "setting": "[4]", "value": "15.3 µM (active)"}
    ]},
    {"smiles": "COc1cccc(OCC(=O)NN=C2c3ccccc3-c3ccccc32)c1", "values": [
      {"measurement": "AC50", "setting": "[3]", "value": "inconclusive"}
    ]},
    {"smiles": "O=C(Nc1ccc(C(=O)NCCCN2CCN(c3ccc(F)cc3)CC2)cc1)C1=CSCCO1", "values": [
      {"measurement": "IC50", "setting": "[5]", "value": "> 20 µM (inactive)"},
      {"measurement": "IC50", "setting": "[6]", "value": "10.3 µM (active)"},
      {"measurement": "IC50", "setting": "[7]", "value": "12.5 µM (active)"}
    ]},
    {"smiles": "CN1CC[C@@]2(C)c3cc(O)ccc3N(C)[C@@H]12", "values": [
      {"measurement": "IC50", "setting": "[4]", "value": "42.6 µM (inactive)"},
      {"measurement": "IC50", "setting": "[8]", "value": "22.4 µM (active)"}
    ]},
    {"smiles": "CC1(OC(=O)C2CCCC2)C(=O)C=C2C=C(c3ccsc3)N(CCc3c[nH]c4ccccc34)C=C2C1=O", "note": "(configuration not stated)", "values": [
      {"measurement": "IC50", "setting": "[4]", "value": "49.6 µM (inactive)"}
    ]},
    {"smiles": "Oc1c(CN2CCCCC2)ccc2cccnc12", "values": [
      {"measurement": "AC50", "setting": "[9]", "value": "2.11 µM (active)"},
      {"measurement": "AC50", "setting": "[10]", "value": "3.77 µM (active)"},
      {"measurement": "AC50", "setting": "[11]", "value": "52.3 µM (active)"},
      {"measurement": "IC50", "setting": "[12]", "value": "2.05 µM (active)"}
    ]},
    {"smiles": "Cc1ccc(S(=O)(=O)N2CCCCC2CCNC(=O)C(=O)NCc2ccncc2)cc1", "note": "(configuration not stated)", "values": [
      {"measurement": "IC50", "setting": "[13]", "value": "> 80 µM (inactive)"}
    ]},
    {"smiles": "NC(=O)CC(NC(=O)Cc1cccc2ccccc12)c1ccc(NC2CCCCCC2)c([N+](=O)[O-])c1", "note": "(configuration not stated)", "values": [
      {"measurement": "IC50", "setting": "[14]", "value": "> 100 µM (inactive)"}
    ]},
    {"smiles": "O=C(Nc1nnc(-c2ccccc2SCc2ccccc2)s1)Nc1ccccc1F", "values": [
      {"measurement": "IC50", "setting": "[14]", "value": "46.5 µM (active)"}
    ]},
    {"smiles": "CSc1ccc(S(=O)(=O)Nc2ccc3c4c(cccc24)CC3)cc1", "values": [
      {"measurement": "AC50", "setting": "[15]", "value": "14.1 µM (inconclusive)"},
      {"measurement": "AC50", "setting": "[3]", "value": "inconclusive"}
    ]},
    {"smiles": "Cc1cccc(Oc2coc3cc(OC(=O)c4cccs4)ccc3c2=O)c1", "values": [
      {"measurement": "AC50", "setting": "[1]", "value": "14.1 µM (inconclusive)"},
      {"measurement": "AC50", "setting": "[3]", "value": "inconclusive"}
    ]}
  ]
}
